Reference: US20240246940A1, “HETEROARYL DERIVATIVE COMPOUND AND USE THEREOF” (VORONOI INC., priority 2021, published 2024)

Tests used:
[1] = system: HaCaT cells (EGFR expressing cell line); assay: HaCaT cell proliferation inhibitory activity (CellTiter-Glo, 72 hours); type: cell-based; settings: Homo sapiens
Method in brief: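 Three independent repeats measured growth inhibition across 11 concentrations. The top final concentration was 10 μM for SK-BR-3 and BT-474, 5 μM for N-87 and 45 μM for HaCaT. Growth relative to control, read by luminescence, yielded GI50.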

[2] = system: BT-474 cells (HER2 overexpressing cell line); assay: BT-474 cell proliferation inhibitory activity (CellTiter-Glo, 120 hours); type: cell-based; settings: Homo sapiens
Experimental: To evaluate the cell proliferation inhibitory activity of the compound according to the present invention on HER2 and EGFR kinases, the following method was performed using HER2 overexpressing cell lines (SK-BR-3, BT-474, and N-87) and EGFR expressing cell line (HaCaT).
McCOY'S 5A supplemented with 10% FBS was used for SK-BR-3 cells, RPMI-1640 medium supplemented with 20% FBS was used for BT-474 cancer cells, and RPMI-1640 medium supplemented with 10% FBS was used for N-87 cancer cells. DMEM supplemented with 10% FBS was used for HaCaT cells.
For SK-BR-3 cells, 5000 cells were aliquoted into each well of a white clear bottom 96 well plate (Corning) 48 hours before treatment with the compounds of Examples. For BT-474 cells, 5000 cells were aliquoted into each well of a white clear bottom 96 well plate (Corning) 48 hours before treatment with the compounds of Examples. For N-87 cells, 5000 cells were aliquoted into each well of a white clear bottom 96 well plate (Corning) 24 hours before treatment with the compounds of Examples. For HaCaT cells, 3000 cells were aliquoted into each well of a white clear bottom 96 well plate (Corning) 24 hours before treatment with the compounds of Examples. For SK-BR-3 cells and BT-474 cells, the compounds of Examples were diluted in dimethyl sulfoxide (three-fold dilution, a total of 11 concentrations) and injected each in an amount of 1 μl to a final concentration of 0.2 nM to 10 μM. For N-87 cells, the compounds of Examples were diluted in dimethyl sulfoxide (five-fold dilution, a total of 11 concentrations) and injected each in an amount of 0.5 μl to a final concentration of […] to 5 μM. For HaCaT cells, the compounds of Examples were diluted in dimethyl sulfoxide (three-fold dilution, a total of 11 concentrations) and injected each in an amount of 0.5 μl to a final concentration of 0.8 nM to 45 μM. For the measurement of living cells, the cells were stored at room temperature for 10 minutes using CellTiter-Glo cell viability reagent (Promega) after a certain period of time (SK-BR-3: 120 hours, BT-474: 120 hours, N-87: 72 hours, and HaCaT: 72 hours) post treatment with the compounds of Examples, and the luminescence intensity thereof was measured using a reader (SynergyNeo, Biotek). Each test was repeated three times.
The result values were calculated as a cell growth rate (%) compared to those of the control group. A graph was created using the GraphPad Prism version 5.0 program, and GI50 values were calculated.

C=CC(=O)N1[C@@H]2CC[C@H]1C[C@H](Oc1cc3c(Nc4cc(-c5ccco5)ccc4OC)ncnc3cc1OC)C2 [Example 172, 1-((1R,3s,5S)-3-((4-((5-(furan-2-yl)-2-methoxyphenyl)amino)-7-methoxy-quinazolin-6-yl)oxy)-8-azabicyclo [3.2.1]octan-8-yl)prop-2-en-1-one]
GI50 [1]: ≤ 150 nM | GI50 [2]: ≤ 150 nM

C=CC(=O)N1CC[C@H](Oc2cc3c(Nc4cc(-c5ccco5)ccc4OC)ncnc3cc2OC)[C@@H](F)C1 [Example 174, 1-((3S,4S)-3-fluoro-4-((4-((5-(furan-2-yl)-2-methoxyphenyl)amino)-7-methoxy-quinazolin-6-yl)oxy)piperidin-1-yl)prop-2-en-1-one]
GI50 [1]: ≤ 150 nM | GI50 [2]: ≤ 150 nM

C=CC(=O)N1CC[C@@H](Oc2cc3c(Nc4cc(-c5ccco5)ccc4OC)ncnc3cc2OC)[C@@H](F)C1 [Example 178, 1-((3S,4R)-3-fluoro-4-((4-((5-(furan-2-yl)-2-methoxyphenyl)amino)-7-methoxy-quinazolin-6-yl)oxy)piperidin-1-yl)prop-2-en-1-one]
GI50 [1]: ≤ 150 nM | GI50 [2]: ≤ 150 nM

C=CC(=O)N1CCC(Oc2cc3c(Nc4cc(-c5ccc(C#N)o5)ccc4OC)ncnc3cc2OC)CC1 [Example 183, 5-(3-((6-((1-acryloyl-piperidin-4-yl)oxy)-7-methoxy-quinazolin-4-yl)amino)-4-methoxyphenyl) furan-2-carbonitrile]
GI50 [1]: 150 to 1000 nM | GI50 [2]: 150 to 1000 nM

C=C(F)C(=O)N1CCC(Oc2cc3c(Nc4cc(-c5ccco5)ccc4OC)ncnc3cc2OC)CC1 [Example 184, 2-fluoro-1-(4-((4-((5-(furan-2-yl)-2-methoxyphenyl)amino)-7-methoxy-quinazolin-6-yl)oxy)piperidin-1-yl)prop-2-en-1-one]
GI50 [1]: 150 to 1000 nM | GI50 [2]: > 1000 nM

C=CC(=O)N1CCC(Oc2cc3c(Nc4c(OC)ccc(-c5ccco5)c4F)ncnc3cc2OC)CC1 [Example 185, 1-(4-((4-((2-fluoro-3-(furan-2-yl)-6-methoxyphenyl)amino)-7-methoxy-quinazolin-6-yl)oxy)piperidin-1-yl)prop-2-en-1-one]
GI50 [1]: ≤ 150 nM | GI50 [2]: ≤ 150 nM

COc1ccc(-c2ccc(F)cc2F)cc1Nc1ncnc2cc(OC)c(OC3CCN(C(=O)C(F)Cl)CC3)cc12 (stereo not shown) [Example 187, 2-chloro-1-(4-((4-((2′,4′-difluoro-4-methoxy-[1,1′-biphenyl]-3-yl)amino)-7-methoxy-quinazolin-6-yl)oxy)piperidin-1-yl)-2-fluoroethan-1-one]
GI50 [1]: ≤ 150 nM | GI50 [2]: 150 to 1000 nM

COc1ccc(-c2ccco2)cc1Nc1ncnc2cc(OC)c(OC3CCN(C(=O)C(F)Cl)CC3)cc12 (stereo not shown) [Example 188, 2-chloro-2-fluoro-1-(4-((4-((5-(furan-2-yl)-2-methoxyphenyl)amino)-7-methoxy-quinazolin-6-yl)oxy)piperidin-1-yl)ethan-1-one]
GI50 [1]: ≤ 150 nM | GI50 [2]: 150 to 1000 nM

C=CC(=O)N1CCC(Oc2cc3c(Nc4cc(-c5ccc6ccsc6c5)ccc4OC)ncnc3cc2OC)CC1 [Example 193, 1-(4-((4-((5-(benzo[b]thiophen-6-yl)-2-methoxyphenyl)amino)-7-methoxy-quinazolin-6-yl)oxy)piperidin-1-yl)prop-2-en-1-one]
GI50 [1]: ≤ 150 nM | GI50 [2]: 150 to 1000 nM

C=CC(=O)N1CCC(Oc2cc(OC)cc3ncnc(Nc4cc(-c5ccco5)ccc4OC)c23)C(F)(F)C1 (stereo not shown) [Example 195, 1-(3,3-difluoro-4-((4-((5-(furan-2-yl)-2-methoxyphenyl)amino)-7-methoxy-quinazolin-5-yl)oxy)piperidin-1-yl)prop-2-en-1-one]
GI50 [1]: ≤ 150 nM | GI50 [2]: ≤ 150 nM

C=CC(=O)N1CCC(Oc2cc3c(Nc4cc(-c5ccc(F)c(C(F)F)c5)ccc4OC)ncnc3cc2OC)CC1 [Example 196, 1-(4-((4-((3′-(difluoromethyl)-4′-fluoro-4-methoxy-[1,1′-biphenyl]-3-yl)amino)-7-methoxy-quinazolin-6-yl)oxy)piperidin-1-yl)prop-2-en-1-one]
GI50 [1]: 150 to 1000 nM | GI50 [2]: ≤ 150 nM

C=CC(=O)N1CCC(Oc2cc3c(Nc4cc(-c5cccc([N+](=O)[O-])c5)ccc4OC)ncnc3cc2OC)CC1 [Example 197, 1-(4-((7-methoxy-4-((4-methoxy-3′-nitro-[1,1′-biphenyl]-3-yl)amino)quinazolin-6-yl)oxy)piperidin-1-yl)prop-2-en-1-one]
GI50 [1]: > 1000 nM | GI50 [2]: 150 to 1000 nM

C=CC(=O)N1CCC(Oc2cc3c(Nc4cc(-c5c(F)c(F)c(F)c(F)c5F)ccc4OC)ncnc3cc2OC)CC1 [Example 198]
GI50 [1]: > 1000 nM | GI50 [2]: 150 to 1000 nM

C=CC(=O)N1CC(Oc2cc3c(Nc4cc(-c5cccc(N(C)C)c5)ccc4OC)ncnc3cc2OC)C1 [Example 199, 1-(3-((4-((3′-(dimethylamino)-4-methoxy-[1,1′-biphenyl]-3-yl)amino)-7-methoxy-quinazolin-6-yl)oxy)azetidin-1-yl)prop-2-en-1-one]
GI50 [1]: 150 to 1000 nM | GI50 [2]: ≤ 150 nM

C=CC(=O)N1CCC(F)(F)C(Oc2cccc3ncnc(Nc4cc(-c5ccc(F)cc5F)ccc4OC)c23)C1 (stereo not shown) [Example 200, 1-(3-((4-((2′,4′-difluoro-4-methoxy-[1,1′-biphenyl]-3-yl)amino)quinazolin-5-yl)oxy)-4,4-difluoro-piperidin-1-yl)prop-2-en-1-one]
GI50 [1]: ≤ 150 nM | GI50 [2]: ≤ 150 nM

C=CC(=O)N1CCC(F)(F)C(Oc2cc(OC)cc3ncnc(Nc4cc(-c5ccc(F)cc5F)ccc4OC)c23)C1 (stereo not shown) [Example 201, 1-(3-((4-((2′,4′-difluoro-4-methoxy-[1,1′-biphenyl]-3-yl)amino)-7-methoxy-quinazolin-5-yl)oxy)-4,4-difluoro-piperidin-1-yl)prop-2-en-1-one]
GI50 [1]: ≤ 150 nM | GI50 [2]: ≤ 150 nM

C=CC(=O)N1CCC(Oc2cc3c(Nc4cc(-c5ccc(F)c(C(F)(F)F)c5F)ccc4OC)ncnc3cc2OC)CC1 [Example 202, 1-(4-((4-((2′,4′-difluoro-4-methoxy-3-(trifluoro-methyl)′-[1,1′-biphenyl]-3-yl)amino)-7-methoxy-quinazolin-6-yl)oxy)piperidin-1-yl)prop-2-en-1-one]
GI50 [1]: > 1000 nM | GI50 [2]: ≤ 150 nM

C=CC(=O)N1CCC(Oc2cc3c(Nc4cc(-c5ccc(F)c(F)c5F)ccc4OC)ncnc3cc2OC)CC1 [Example 203, 1-(4-((7-methoxy-4-((2′,3′,4′-trifluoro-4-methoxy-[1,1′-biphenyl]-3-yl)amino)quinazolin-6-yl)oxy)piperidin-1-yl)prop-2-en-1-one]
GI50 [1]: 150 to 1000 nM | GI50 [2]: ≤ 150 nM

C=CC(=O)N1CCC(Oc2cc3c(Nc4cc(-c5cccc(C(=O)OC)c5)ccc4OC)ncnc3cc2OC)CC1 [Example 204, methyl 3′-((6-((1-acryloyl-piperidin-4-yl)oxy)-7-methoxy-quinazolin-4-yl)amino)-4′-methoxy-[1,1-biphenyl]-3-carboxylate]
GI50 [1]: 150 to 1000 nM | GI50 [2]: ≤ 150 nM

C=CC(=O)N1CCC(Oc2cc3c(Nc4cc(-c5cccc(SC)c5)ccc4OC)ncnc3cc2OC)CC1 [Example 205, 1-(4-((7-methoxy-4-((4-methoxy-3′-(methylthio)-[1,1′-biphenyl]-3-yl)amino)quinazolin-6-yl)oxy)piperidin-1-yl)prop-2-en-1-one]
GI50 [1]: > 1000 nM | GI50 [2]: 150 to 1000 nM
